According to US20080064665A1, “Combination approaches to cancer treatment” (priority 2006, published 2008):
Where “and” joins values, the source holds several entries; their conditions need not be identical. Equal entries are not always repeated.

Columns and labels:
[1] = test system: H460 human lung cancer xenografts; assay: Growth delay and survival of H460 xenografts, PR-104, docetaxel and schedules thereof; type: in vivo, CD-1 nude mice
Experimental: Specific pathogen-free homozygous nu/nu (CD-1) nu/nu [NIH-III] (Charles River Laboratories, Wilmington, Mass.) were provided by the Animal Resources Unit (University of Auckland) at 7 to 9 weeks of age. Mice were housed in groups of 4-7 in a temperature-controlled room (22±2° C.) with a 12-hour light/dark cycle and were fed ad libitum water and a standard rodent diet (Harlan Teklad diet 2018i). All animals were uniquely identifiable by ear tag number. All animal protocols were approved by the Animal Ethics Committee of the University of Auckland (AEC approval C337).
A single cell suspension was prepared by trypsinisation (1× Trypsin/EDTA) from spinner culture, counted, and suspended in ∝MEM to give required cell concentration, as listed below. Mice were inoculated (100 μL) at a single subcutaneous site (right flank) using a 1 ml syringe with a 26 gauge needle.
Seven days post-inoculation, tumors were measured three times per week until they reached the treatment size (mean diameter 5.8-8.2 mm; average 7.0 mm). Mean tumor diameter was averaged from the longest diameter (length) multiplied by the perpendicular measurement (width). Tumor diameters were estimated when mean diameter was below 5 mm, and measured with electronic callipers when ≧5 mm.
Tumor volume was calculated using the formula:
where L=length and w=width in mm of the carcinoma.
(§1) Excess compound was discarded.
Tumor bearing mice were assigned randomly to treatment groups when tumor diameter reached treatment size. Animals were rejected if xenografts show evidence of: (i) attachment to underlying muscle (due to risk of local invasion), (ii) signs of ulceration, or (iii) indolent tumor growth. Drug administration begins on the day of assignment. In general, 0.7-0.8 of the inoculated population is assigned to the experiment. Drug administration was undertaken as outlined above.
During and after treatment, tumor size and body weights were measured regularly. Animals were culled if (i) the average diameter of the tumor exceeds 15 mm (survival end-point), (ii) body weight loss exceeds 15% of pre-treatment value, (iii) there is evidence of prolonged or excessive morbidity, or (iv) tumor ulceration occurred. Each experiment was terminated at day 120 after treatment initiation.
Kaplan-Meier plots were constructed and median survival was calculated (TTE50). The statistical significance of any differences in overall survival between treatment groups and control was analysed by Log Rank P statistical test. The log-rank test was calculated using XLStat Life (Kovach Computing Services Ltd). The statistic significance in overall survival between each treatment group and control was determined by testing the null hypothesis that the survival curves are identical in the two populations.
The time for individual tumors to increase in volume by 4 fold relative to treatment day-1 (relative tumor volume×4−RTV^4) was recorded. The median RTV^4 is calculated for each group and the difference in RTV^4 between control and treatment groups is described as the Tumor Growth Delay (TGD) in days. RTV^4 values notmalise for any bias in tumor treatment volume on day-1. The RTV^4 of each treatment group is tested for statistical difference from control group by unpaired t-test and Mann Whitney U test (means and medians, respectively).
In circumstances where long-term controls (LTCs) occur, an RTV^4 value equal to the total duration of the experiment is assigned for the purposes of statistical analysis (usually 120 days). Where one or more LTC is present the median RTV^4 of each treatment group is tested for statistical difference from control group by Mann Whitney U test only. The statistical analysis was conducted at a p level of 0.05 (two-tailed). SigmaStat v3.10 was used for the statistical analysis of RTV^4 values. SigmaPlot v9 was used for all graph plots.
Weight loss nadirs (time independent maxima) were recorded for each treatment group.

[2] = test system: SiHa human cervical cancer xenograft; assay: Growth delay and survival of SiHa xenograft, PR-104 and docetaxel; type: in vivo, Rag-1^null mice
Description: Analysis: End-points will be expressed as TTE50, Median RTV^4 and plotted in Kaplan-Meier Plots and analysed by Log Rank P statistical test. Weight loss nadir will be compared between schedules.

[3] = test system: 22RV1 androgen-resistant human prostate cancer xenograft; assay: Growth delay and survival of 22RV1 xenograft, PR-104 and docetaxel; type: in vivo, CD-1 nude mice
Experimental: (§2) End-point: After treatment, tumor size and body weights were measured regularly and mice were culled either when the average diameter of the tumor reached 15 mm (end-point), the tumor ulcerated or when the body weight change reached −15%. Experiment was ended and all remaining mice culled 120 days after treatment.
(§3) Analysis: End-points will be expressed as TTE50, Median RTV^4 and plotted in Kaplan-Meier Plots and analysed by Log Rank P statistical test.

[4] = test system: A2780 human ovarian cancer xenografts; assay: Growth delay and survival of A2780 xenografts, PR-104 and docetaxel; type: in vivo, CD-1 nude mice
Experimental: as §2, §3

[5] = test system: SiHa cervical cancer xenografts; assay: Excision assay of SiHa xenografts (clonogenic log cell kill); type: in vivo, CD-1 Fox^nu mice; conditions: SN 28343 91.2 mg/kg, SN 29303 375 mg/kg; for cell kill versus controls in excision assay (in words): SiHa human cervical tumor xenograft, docetaxel 65 mg/kg i.p.; for Log Cell Kill versus controls (Mean ± SEM): SiHa tumors excised 18 hours after treatment, docetaxel 65 mg/kg, i.p.
Experimental: As for Part 1 except for except where noted below.
as §1
Date, body weights (used to adjust injection volume), tumor diameter, unique identifier (tail markings), body weight, and volume to be injected were recorded. Animals were dosed with the test articles i.p. following a defined treatment schedule:
18 hours after treatment the mice were culled by cervical dislocation and tumors removed by dissection, in a sterile laminar flow hood. Whole tumor weights were recorded. Tumors were minced using scissors or scalpels until a fine minceate was obtained, and up to 500 mg of minceate was transferred into a pre-tiered Falcon®14 ml test tube containing a sterile magnetic spin bar and re-weighed.
Samples were then incubated in 37° C. water bath for 30 min over a magnetic stirrer.
After incubation any undissociated material was allowed to settle for 1 minute. […] Pellets were re-suspended in 10 ml of medium. Cells/ml was determined using an electronic particle counter (Beckman Coulter Electronics, Z2 model). Samples were then diluted to 1×10^5cells/ml and 6-fold serial dilutions made down to 4.6×10^2cells/ml.
1 ml of each sample was plated in triplicate for each dilution into appropriately labelled Falcon® P-60 tissue culture dishes containing 4 ml of αMEM+10% FCS+PS.
Where possible, all plates were counted; those colonies counted=larger than 50 cells, confirmed with the light microscope. TMTC was recorded for those plates where there were too many colonies to count.
The criteria for selecting the best dilution to use for calculating plating efficiency (PE):
Higher dilution count>100 colonies (average); lower dilution 10-100 colonies, use PE from the dilution with fewer colonies.
Higher dilution count >100; lower dilution count <20, use average data from both.
Higher dilution count <100; lower dilution count <20, use PE from the dilution with more colonies.
Higher dilution count <100; lower dilution count >20, use average data from both. Note: For the 10^5 dilution, take as the “lower limit” colony count a total count of 30, (sum of all replicates).

[6] = H460 xenograft, PR-104 652 mg/kg, docetaxel 73 mg/kg, q2w×2
[7] = Rag-1 mice, PR-104 652 mg/kg, docetaxel 73 mg/kg, q2w×2
[8] = 22RV1 xenograft, PR-104 652 mg/kg, docetaxel 73 mg/kg, q2w×2
[9] = A2780 xenograft, PR-104 652 mg/kg, docetaxel 73 mg/kg, q2w×2

`CS(=O)(=O)OCCN(CCBr)c1c(C(=O)NCCOP(=O)(O)O)cc([N+](=O)[O-])cc1[N+](=O)[O-]` [PR-104, 2-[(2-bromoethyl)-2,4-dinitro-6-[[[2-(phosphonooxy)ethyl]amino]-carbonyl]anilino]ethyl methane sulfonate] was tested, and the “Weight Loss Nadir (%)” value ([1]; H460 xenograft, CD-1 nude mice, mean body weight loss nadir, PR-104 652 mg/kg, docetaxel 73 mg/kg, i.p., q2w×2) was −4.9 ± 1.0%, the Unscheduled deaths ([1]; H460 xenograft, female CD-1 nude mice, total dose PR-104 652 mg/kg, docetaxel 73 mg/kg, i.p., q2w×2) was 0 and the “LTC (long term control, failed to reach end-point within duration of experiment)” value ([1]; H460 xenograft, 120 day experiment, PR-104 652 mg/kg, docetaxel 73 mg/kg, q2w×2) was 0. The “Median RTV^4 (median time for tumor volume to increase 4-fold)” value [1, 6] was 23 days, the “TGD (tumor growth delay; relative gain in median RTV^4 versus control)” value [1, 6] was 187.5% and the “TTE50 (median time for tumor end-point to occur from day of treatment)” value ([1]; H460 xenograft, end-point >15 mm mean diameter, PR-104 652 mg/kg, docetaxel 73 mg/kg, q2w×2) was 29 days. For the same compound, the “Gain TTE50 (improvement in median survival)” value (“Gain TTE50” below) ([1]; H460 xenograft, versus control (11 days), PR-104 652 mg/kg, docetaxel 73 mg/kg, q2w×2) was 18 days, the “activity against H460 xenograft (in words)” value ([1]; tumor growth delay and survival end-points) was “significant single agent activity” and the “activity against SiHa xenograft (in words)” value ([2]; Rag-1 mice) was “modestly active”. The “LTC (long term control)” value ([2]; Rag-1 mice, 120 day experiment) was 0, the “Weight Loss Nadir (%)” value ([2]; Rag-1 mice, PR-104 652 mg/kg, docetaxel 73 mg/kg, i.p., q2w×2) was −2.2±1.2% and the “Median RTV^4” value [2, 7] was 16 days. The “TGD (relative gain in median RTV^4 versus control)” value [2, 7] was 33.3%, the “TTE50 (median time for tumor end-point to occur)” value [2, 7] was 25 days and the Day of death ([2]; Rag-1 mice, day of unscheduled death) was 14^B. For the same compound, the “improvement in tumor growth delay” value ([2]; Rag-1 mice, versus control) was 4 days, the “Gain TTE50” value ([2]; Rag-1 mice, versus control (17 days)) was 8 days and the Unscheduled deaths ([2]; female Rag-1 mice, total dose PR-104 652 mg/kg, docetaxel 73 mg/kg, i.p., q2w×2) was 1. The “activity against 22RV1 xenograft (in words)” value ([3]; 22RV1 prostate xenograft model) was “modest single-agent antitumor activity”, the “Weight Loss Nadir (%)” value ([3]; 22RV1 xenograft, CD-1 nude mice, PR-104 652 mg/kg, docetaxel 73 mg/kg, i.p., q2w×2) was −2.1±0.5% and the “LTC (long term control)” value ([3]; 22RV1 xenograft, 120 day experiment) was 0. The “Median RTV^4” value [3, 8] was 23 days, the “TGD (relative gain in median RTV^4 versus control; TGI in text)” value [3, 8] was 156% and the TTE50 [3, 8] was 26.5 days. For the same compound, the “median tumor growth delay” value ([3]; 22RV1 xenograft, versus control) was 14 days, the “Gain TTE50” value ([3]; 22RV1 xenograft, versus control (9.5 days)) was 17 days and the “Weight Loss Nadir (%)” value ([4]; A2780 xenograft, CD-1 nude mice, PR-104 652 mg/kg, docetaxel 73 mg/kg, i.p., q2w×2) was −6.1±1.2%. The “LTC (long term control)” value ([4]; A2780 xenograft, 120 day experiment) was 0, the “Median RTV^4” value [4, 9] was 8 days and the “TGD (relative gain in median RTV^4 versus control)” value [4, 9] was 78% and 77.8%. The TTE50 [4, 9] was 10 days, the “improvement in median tumor growth delay” value ([4]; A2780 xenograft, versus control) was 3.5 days and the “Gain TTE50” value ([4]; A2780 xenograft, versus control (6 days)) was 4 days. For the same compound, the “activity against A2780 xenograft (in words)” value ([4]; based on tumor growth delay) was “no activity”.

For `O=C(NCCOP(=O)(O)O)c1cc([N+](=O)[O-])cc([N+](=O)[O-])c1N(CCBr)CCBr` [SN 28343, 2-[Bis(2-bromoethyl)amino]-N-(2-hydroxyethyl)-3,5-dinitrobenzamide phosphate ester], the “cell kill versus controls in excision assay (in words)” value [5] was “moderate and significant cell killing” and the “Log Cell Kill versus controls (Mean ± SEM)” value [5] was 0.821.

`CS(=O)(=O)OCCN(CCBr)c1ccc([N+](=O)[O-])c(C(=O)NCCCOP(=O)(O)O)c1[N+](=O)[O-]` [SN 29303, 2-[2-bromoethyl)-2,4-dinitro-3-({[3-(phosphonooxy)propyl]amino}carbonyl) anilino]ethyl methanesulfonate] was tested, and the “cell kill versus controls in excision assay (in words)” value [5] was “moderate and significant cell killing” and the “Log Cell Kill versus controls (Mean ± SEM)” value [5] was 0.770.
